Reference: patent US9475815B2, “Substituted benzothienyl-pyrrolotriazines and uses thereof” (Bayer Intellectual Property GmbH, priority 2012, dated 2016)
Counter-ions that a name gives are not always drawn.

Key:
[1] = target: human FGFR-1 (Homo sapiens, UniProt P11362); experiment: FGFR-1 high ATP kinase assay (TR-FRET)
[2] = target: human mTOR (Homo sapiens (Human), UniProt P42345); experiment: mTOR kinase assay (TR-FRET, for comparative purposes); type: biochemical; details: for inhibition at 1 µM: read-out: mTOR % inhibition @ 1 μM, 1 μM test compound, 40 μM ATP, mean values
Sequence of human mTOR (P42345 1360-2549): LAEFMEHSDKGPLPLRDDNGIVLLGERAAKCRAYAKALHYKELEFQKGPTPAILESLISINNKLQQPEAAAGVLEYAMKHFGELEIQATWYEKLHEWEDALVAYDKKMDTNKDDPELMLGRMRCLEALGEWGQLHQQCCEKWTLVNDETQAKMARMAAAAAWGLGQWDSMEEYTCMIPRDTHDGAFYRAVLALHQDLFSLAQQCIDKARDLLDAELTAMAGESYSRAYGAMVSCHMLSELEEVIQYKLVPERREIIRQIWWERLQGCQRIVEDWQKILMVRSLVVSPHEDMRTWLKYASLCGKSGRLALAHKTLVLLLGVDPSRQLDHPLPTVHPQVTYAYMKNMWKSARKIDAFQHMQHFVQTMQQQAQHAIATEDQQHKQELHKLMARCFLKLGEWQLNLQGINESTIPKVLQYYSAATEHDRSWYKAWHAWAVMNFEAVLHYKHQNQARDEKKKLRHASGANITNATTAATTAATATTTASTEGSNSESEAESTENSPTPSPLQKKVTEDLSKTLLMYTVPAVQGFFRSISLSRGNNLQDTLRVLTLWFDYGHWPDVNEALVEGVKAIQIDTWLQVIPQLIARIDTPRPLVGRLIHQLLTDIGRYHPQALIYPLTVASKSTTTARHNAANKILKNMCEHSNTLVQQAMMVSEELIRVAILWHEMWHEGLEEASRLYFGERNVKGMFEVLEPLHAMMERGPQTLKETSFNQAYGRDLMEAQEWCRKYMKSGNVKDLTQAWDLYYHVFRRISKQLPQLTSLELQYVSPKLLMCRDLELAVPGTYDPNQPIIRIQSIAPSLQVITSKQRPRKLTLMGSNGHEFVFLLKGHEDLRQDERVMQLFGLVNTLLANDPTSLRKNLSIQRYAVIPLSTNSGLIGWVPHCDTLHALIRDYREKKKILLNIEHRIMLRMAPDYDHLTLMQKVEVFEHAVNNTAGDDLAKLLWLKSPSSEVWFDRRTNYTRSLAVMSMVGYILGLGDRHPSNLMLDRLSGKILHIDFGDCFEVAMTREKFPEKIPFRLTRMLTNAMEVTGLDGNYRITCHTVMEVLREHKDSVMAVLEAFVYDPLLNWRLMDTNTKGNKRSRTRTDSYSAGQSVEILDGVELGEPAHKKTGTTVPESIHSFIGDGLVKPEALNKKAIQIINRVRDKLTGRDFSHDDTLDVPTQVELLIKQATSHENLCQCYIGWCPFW
Procedure: mTOR inhibitory activity of the compounds of the present invention was quantified employing the TR-FRET based mTOR assay as described in the following paragraphs:
Test compounds were dissolved in DMSO to generate 10 mM stock solutions. These solutions were first 10-fold diluted by 100% DMSO to get 1 mM solutions in 100% DMSO, then 100-fold diluted by 50% DMSO to get 10 μM solutions in 50% DMSO.
(final concentration in the 10 μl assay volume=1 nM) in FRET buffer.
For this, the fluorescence emissions at 495 nm and 520 nm after excitation at 340 nm was measured in an Envision 2104 multilabel reader (Perkin-Elmer).

[3] = target: human FGFR-3 (Homo sapiens (Human), UniProt P22607); experiment: FGFR-3 kinase assay (TR-FRET); type: biochemical; details: 10 μM ATP, 15 min pre-incubation with enzyme
Sequence of human FGFR-3 (P22607 397-806): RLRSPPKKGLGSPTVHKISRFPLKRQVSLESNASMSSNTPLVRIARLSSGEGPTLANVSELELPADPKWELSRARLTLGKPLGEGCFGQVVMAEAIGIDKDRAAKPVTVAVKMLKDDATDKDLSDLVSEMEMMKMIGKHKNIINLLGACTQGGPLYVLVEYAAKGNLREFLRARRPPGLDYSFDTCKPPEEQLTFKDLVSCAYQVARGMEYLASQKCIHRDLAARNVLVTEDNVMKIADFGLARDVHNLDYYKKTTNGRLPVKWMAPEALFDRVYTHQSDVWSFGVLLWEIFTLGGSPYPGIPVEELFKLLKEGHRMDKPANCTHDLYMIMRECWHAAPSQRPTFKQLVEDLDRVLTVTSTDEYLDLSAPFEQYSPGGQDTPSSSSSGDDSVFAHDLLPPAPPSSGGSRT

Sequence of human FGFR-1 (P11362 22-822 limits assumed): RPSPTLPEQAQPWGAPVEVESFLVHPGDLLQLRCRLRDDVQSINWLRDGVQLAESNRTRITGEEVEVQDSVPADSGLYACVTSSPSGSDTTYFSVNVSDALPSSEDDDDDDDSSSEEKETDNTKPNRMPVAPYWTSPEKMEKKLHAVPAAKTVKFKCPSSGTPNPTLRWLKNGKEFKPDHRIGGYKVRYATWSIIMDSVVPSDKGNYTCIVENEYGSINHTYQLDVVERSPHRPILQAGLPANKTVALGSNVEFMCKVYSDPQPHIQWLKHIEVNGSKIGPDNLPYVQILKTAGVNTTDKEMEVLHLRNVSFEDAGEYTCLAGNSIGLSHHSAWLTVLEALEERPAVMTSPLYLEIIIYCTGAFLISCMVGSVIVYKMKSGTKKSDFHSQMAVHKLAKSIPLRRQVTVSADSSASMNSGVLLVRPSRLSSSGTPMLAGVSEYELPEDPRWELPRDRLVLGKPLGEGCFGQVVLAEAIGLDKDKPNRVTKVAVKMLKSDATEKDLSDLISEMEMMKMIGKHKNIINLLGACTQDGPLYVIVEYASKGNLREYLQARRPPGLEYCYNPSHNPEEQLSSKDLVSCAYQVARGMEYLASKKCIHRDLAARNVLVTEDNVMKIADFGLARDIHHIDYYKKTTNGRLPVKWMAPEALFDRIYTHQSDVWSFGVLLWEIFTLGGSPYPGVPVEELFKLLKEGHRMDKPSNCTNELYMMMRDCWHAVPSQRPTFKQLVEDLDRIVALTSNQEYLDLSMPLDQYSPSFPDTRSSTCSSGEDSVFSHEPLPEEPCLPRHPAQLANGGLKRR

SMILES	IC50 [1]	inhibition at 1 µM [2]	IC50 [3]	mTOR % inhibition @ 1 μM ([2]; 1 μM test compound, 40 μM ATP, mean values)
COc1cccc2cc(-c3cc(CN4CCNCC4)n4ncnc(N)c34)sc12 [Example 3, 5-(7-Methoxy-1-benzothiophen-2-yl)-7-(piperazin-1-ylmethyl)pyrrolo[2,1-f][1,2,4]triazin-4-amine]	92.8 nM	12.2%		
COc1cc(Cl)cc2cc(-c3cc(CN4CCNCC4)n4ncnc(N)c34)sc12 [Example 4, 5-(5-Chloro-7-methoxy-1-benzothiophen-2-yl)-7-(piperazin-1-ylmethyl)pyrrolo[2,1-f][1,2,4]-triazin-4-amine trihydrochloride]	34.7 nM	26.2%	79 nM	
COc1cc(C)cc2cc(-c3cc(CN4CCNC(=O)C4(C)C)n4ncnc(N)c34)sc12 [Example 11, 4-{[4-Amino-5-(7-methoxy-5-methyl-1-benzothiophen-2-yl)pyrrolo[2,1-f][1,2,4]triazin-7-yl]-methyl}-3,3-dimethylpiperazin-2-one]	95 nM	27.8%	146 nM	
COc1cc(C)cc2cc(-c3cc(CN4CCN(C)CC4)n4ncnc(N)c34)sc12 [Example 12, 5-(7-Methoxy-5-methyl-1-benzothiophen-2-yl)-7-[(4-methylpiperazin-1-yl)methyl]pyrrole[2,1-f]-[1,2,4]triazin-4-amine bis(formiate)]	39.1 nM	11.4%		
CCN1CCN(Cc2cc(-c3cc4cc(C)cc(OC)c4s3)c3c(N)ncnn23)CC1 [Example 13, 7-[(4-Ethylpiperazin-1-yl)methyl]-5-(7-methoxy-5-methyl-1-benzothiophen-2-yl)pyrrole[2,1-f]-[1,2,4]triazin-4-amine formiate]	93.6 nM	25.2%		
COc1cc(C)cc2cc(-c3cc(CN4CC(O)C(NCCO)C4)n4ncnc(N)c34)sc12 (stereo not shown) [Example 21]	13.2 nM	37.6%	8 nM	
COc1cc(C)cc2cc(-c3cc(CN4CC5CNCC5C4)n4ncnc(N)c34)sc12 (stereo not shown) [Example 23]	19.3 nM	28.1%	69.4 nM	
COc1cc(C)cc2cc(-c3cc(CN4CCC5CN(C)CC54)n4ncnc(N)c34)sc12 (stereo not shown) [Example 24]	34.1 nM	17.3%	119 nM	
COc1cc(C)cc2cc(-c3cc(CN4CCN(CCO)CC4)n4ncnc(N)c34)sc12 [Example 25]	73.3 nM	10.2%		
COc1cc(C)cc2cc(-c3cc(CN4CCC(N)CC4)n4ncnc(N)c34)sc12 [Example 26]	82.6 nM		130 nM	no inhib. effect detect.
COc1cc(C)cc2cc(-c3cc(CN4CC5CC5(N)C4)n4ncnc(N)c34)sc12 (stereo not shown) [Example 27]	42.2 nM	2.4%	60.8 nM	
CNC(=O)CNCc1cc(-c2cc3cc(C)cc(OC)c3s2)c2c(N)ncnn12 [Example 28]	83.2 nM	6.9%	63.7 nM	
CNCCNCc1cc(-c2cc3cc(C)cc(OC)c3s2)c2c(N)ncnn12 [Example 29]	50.4 nM	2.4%		
COc1cc(C)cc2cc(-c3cc(CNCCNC(N)=O)n4ncnc(N)c34)sc12 [Example 30]	54.2 nM	16.2%		
COc1cc(C)cc2cc(-c3cc(CNCCN)n4ncnc(N)c34)sc12 [Example 32]	23.3 nM	41.3%		
COc1cc(C)cc2cc(-c3cc(CNCCNC(C)(C)C)n4ncnc(N)c34)sc12 [Example 34]	99.3 nM	4.9%		
COc1cc(C)cc2cc(-c3cc(CN4CCNC(c5cccs5)C4)n4ncnc(N)c34)sc12 (stereo not shown) [Example 35]	16.4 nM	34%		
CCC1CN(Cc2cc(-c3cc4cc(C)cc(OC)c4s3)c3c(N)ncnn23)CCN1 (stereo not shown) [Example 36]	17 nM	18.3%		
COc1cc(C)cc2cc(-c3cc(CNC4CCCNC4=O)n4ncnc(N)c34)sc12 (stereo not shown) [Example 37]	44.9 nM	13.4%		
COc1cc(C)cc2cc(-c3cc(CN4CCNC(C(=O)O)C4)n4ncnc(N)c34)sc12 (stereo not shown) [Example 38]	45.7 nM	11.2%		
COc1cc(C)cc2cc(-c3cc(CN4CCNC(=O)C4C)n4ncnc(N)c34)sc12 (stereo not shown) [Example 39]	57.1 nM	21.4%		
COc1cc(C)cc2cc(-c3cc(CNC4CCC(N)C4)n4ncnc(N)c34)sc12 (stereo not shown) [Example 40]	63.8 nM	15%		
COc1cc(C)cc2cc(-c3cc(CNC4CCCN(C)C4)n4ncnc(N)c34)sc12 (stereo not shown) [Example 43]	50.6 nM	13.8%		

SMILES	IC50 [1]	inhibition at 1 µM [2]	IC50 [3]	mTOR % inhibition @ 1 μM ([2]; 1 μM test compound, 40 μM ATP, mean values)
COc1cc(C)cc2cc(-c3cc(CN4CC(C)NCC4C)n4ncnc(N)c34)sc12 (stereo not shown) [Example 44]	38.8 nM	10.8%		
COc1cc(C)cc2cc(-c3cc(CN(C)C4CCN(C)C4)n4ncnc(N)c34)sc12 (stereo not shown) [Example 46]	20.8 nM	26.3%		
COc1cc(C)cc2cc(-c3cc(CN4C[C@@H]5CCCN[C@@H]5C4)n4ncnc(N)c34)sc12 [Example 47]	25.2 nM	29%		
COc1cc(C)cc2cc(-c3cc(CN4CCCNCC4)n4ncnc(N)c34)sc12 [Example 48]	28.9 nM	16.9%		
COc1cc(C)cc2cc(-c3cc(CN4CCNC(C(C)(C)C)C4)n4ncnc(N)c34)sc12 (stereo not shown) [Example 49]	58.9 nM	1.3%		
COc1cc(C)cc2cc(-c3cc(CN4CCN5CCCC5C4)n4ncnc(N)c34)sc12 (stereo not shown) [Example 50]	59.3 nM	3.4%		
COc1cc(C)cc2cc(-c3cc(CN4CCNC(C)C4)n4ncnc(N)c34)sc12 (stereo not shown) [Example 51]	41.3 nM	0.9%		
COc1cc(C)cc2cc(-c3cc(CN(C)CCCN(C)C)n4ncnc(N)c34)sc12 [Example 52]	87.8 nM	7.3%		
COc1cc(C)cc2cc(-c3cc(CN4CC[C@@H](N)C4)n4ncnc(N)c34)sc12 [Example 53]	94.1 nM	12.6%	145 nM	
COc1cc(C)cc2cc(-c3cc(CN4CCC[C@@H](N)C4)n4ncnc(N)c34)sc12 [Example 55]	16.2 nM	24.6%	18.7 nM	
COc1cc(C)cc2cc(-c3cc(CNC(C)(C)CN4CCCC4)n4ncnc(N)c34)sc12 [Example 57]	32.5 nM	16.2%	53.3 nM	
COc1cc(C)cc2cc(-c3cc(CNCCN4CCC(O)CC4)n4ncnc(N)c34)sc12 [Example 58]	36.2 nM	12.6%	46.7 nM	
COc1cc(C)cc2cc(-c3cc(CN4CCCN(CCO)CC4)n4ncnc(N)c34)sc12 [Example 59]	39.4 nM	7%	47.7 nM	
COc1cc(C)cc2cc(-c3cc(CN4CNC(=O)C4)n4ncnc(N)c34)sc12 [Example 63]		26%	34.5 nM	
COc1cc(C)cc2cc(-c3cc(CN4CCN(C(=O)C5CC5)CC4)n4ncnc(N)c34)sc12 [Example 93, (4-{[4-Amino-5-(7-methoxy-5-methyl-1-benzothiophen-2-yl)pyrrolo[2,1-f][1,2,4]triazin-7-yl]-methyl}piperazin-1-yl)(cyclopropyl)methanone]	67 nM	47.2%		
COc1cc(C)cc2cc(-c3cc(CN4CCN(C(=O)C5CCC5)CC4)n4ncnc(N)c34)sc12 [Example 94, (4-{[4-Amino-5-(7-methoxy-5-methyl-1-benzothiophen-2-yl)pyrrolo[2,1-f][1,2,4]triazin-7-yl]-methyl}piperazin-1-yl)(cyclobutyl)methanone]	68.1 nM	44.7%		
COc1cc(C)cc2cc(-c3cc(CN4CCN(C(=O)CCC(N)=O)CC4)n4ncnc(N)c34)sc12 [Example 95, 4-(4-{[4-Amino-5-(7-methoxy-5-methyl-1-benzothiophen-2-yl)pyrrolo[2,1-f][1,2,4]triazin-7-yl]-methyl}piperazin-1-yl)-4-oxobutanamide dihydrochloride]	95.7 nM	40.3%		
COc1cc(C)cc2cc(-c3cc(COCCN(C)C)n4ncnc(N)c34)sc12 [Example 108, 7-{[2-(Dimethylamino)ethoxy]methyl}-5-(7-methoxy-5-methyl-1-benzothiophen-2-yl)pyrrolo-[2,1-f][1,2,4]triazin-4-amine dihydrochloride]	97.6 nM	7.1%		
Nc1nccn2c(C3CCC3)nc(-c3ccc4sccc4c3)c12 [WO 2007/061737 Example 4, reference compound]			2400 nM	
Nc1nccn2c(C3CCNCC3)nc(-c3cc4ccccc4[nH]3)c12 [WO 2007/061737 Example 25, reference compound]	880 nM		1200 nM	
Nc1nccn2c(C3CCC3)nc(-c3cc4ccccc4s3)c12 [WO 2007/061737 Example 120, reference compound]			506 nM	
Nc1nccn2c(C3CCN(C(=O)c4ccsc4)CC3)nc(-c3cc4ccccc4s3)c12 [WO 2007/061737 Example 157, reference compound]	3000 nM		2300 nM	
Cc1c(-c2nc(C3CCN(C(=O)c4ccsc4)CC3)n3ccnc(N)c23)sc2ccccc12 [WO 2007/061737 Example 209, reference compound]	2800 nM		786 nM	
